{"source": "PubChem BioAssay (NCI)", "system": "MDA-MB-468 breast", "assay": "DTP human tumour cell line panel, 48 h", "note": "Several values for one entry are separate records, joined by “and”; a condition that tells them apart may be missing. Equal values may be shown once.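 48-hour exposure; five concentrations; linearly interpolated endpoints. Abbreviation: GI50, concentration required for 50% inhibition of growth. Definition used: TGI = concentration required for complete inhibition of growth.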"}
{"molecule": "O=C1c2ccccc2C(=Cc2ccccc2)c2ccccc21", "values": [{"measurement": "GI50", "value": 565, "unit": "nM"}, {"measurement": "TGI", "value": 10700, "unit": "nM"}]}
{"molecule": "CC(C)(C#N)c1cc(F)cc(C(=O)Nc2cc(Nc3ncccc3-c3ncnc4nc[nH]c34)ccc2F)c1", "values": [{"measurement": "GI50", "value": "> 10000", "unit": "nM"}, {"measurement": "TGI", "value": "> 10000", "unit": "nM"}]}
{"molecule": "CNC(=O)c1ccc2cc(C3(O)CCn4cncc43)ccc2c1", "note": "(configuration not stated)", "values": [{"measurement": "GI50", "value": "> 100000", "unit": "nM"}, {"measurement": "TGI", "value": "> 100000", "unit": "nM"}]}
{"molecule": "Cn1cc(C2=C(c3cccnc3)C(=O)NC2=O)c2ccccc21", "values": [{"measurement": "GI50", "value": "> 20100", "unit": "nM"}, {"measurement": "TGI", "value": "> 25000", "unit": "nM"}]}
{"molecule": "O=C(Nc1ccc(Oc2ccc3nc(NC(=O)c4ccccc4)[nH]c3c2)cc1)Nc1cc(C(F)(F)F)ccc1F", "values": [{"measurement": "GI50", "value": 625, "unit": "nM"}, {"measurement": "TGI", "value": 5450, "unit": "nM"}]}
{"molecule": "COc1ccc(C2=NN(C(=O)c3cc(OC)c(OC)c(OC)c3)C(c3ccc(Cl)cc3)C2)cc1OC", "note": "(configuration not stated)", "values": [{"measurement": "GI50", "value": 585, "unit": "nM"}, {"measurement": "TGI", "value": "> 100000", "unit": "nM"}]}
{"molecule": "CC(C)(C)c1[nH]cnc1/C=c1\\[nH]c(=O)/c(=C/c2ccccc2)[nH]c1=O", "values": [{"measurement": "GI50", "value": 22.6, "unit": "nM"}, {"measurement": "TGI", "value": 28600, "unit": "nM"}]}
{"molecule": "CN(C)CCOc1ccc(/C(=C(/CCCl)c2ccccc2)c2ccccc2)cc1", "values": [{"measurement": "GI50", "value": 682, "unit": "nM"}, {"measurement": "TGI", "value": 1520, "unit": "nM"}]}
{"molecule": "O=[N+]([O-])c1ccc2c(N3CCC(CCCC4CCN(c5ncnc6cc([N+](=O)[O-])ccc56)CC4)CC3)ncnc2c1", "values": [{"measurement": "GI50", "value": 31.6, "unit": "nM"}, {"measurement": "TGI", "value": "> 100000", "unit": "nM"}]}
{"molecule": "O=C(CCCN1CCOCC1)Nc1ccc(Cn2nnc3c2C(=O)c2nnn(Cc4ccc(NC(=O)CCCN5CCOCC5)cc4)c2C3=O)cc1", "values": [{"measurement": "GI50", "value": 304, "unit": "nM"}, {"measurement": "TGI", "value": 817, "unit": "nM"}]}
{"molecule": "CN(C)c1ncnc2c1nnn2C1OC(CO)C(O)C1O", "note": "(configuration not stated)", "values": [{"measurement": "GI50", "value": 73.6, "unit": "nM"}, {"measurement": "TGI", "value": 1160, "unit": "nM"}]}
{"molecule": "CC(=O)O[C@H](C[C@H](C(C)C)N(C)C(=O)[C@@H](NC(=O)[C@H]1CCCCN1C)C(C)C)c1nc(C(=O)N[C@@H](Cc2ccccc2)C[C@H](C)C(=O)O)c(C(C)C)s1", "values": [{"measurement": "GI50", "value": "< 3.33", "unit": "nM"}, {"measurement": "TGI", "value": 194, "unit": "nM"}]}
{"molecule": "CCN1C(=O)NC(=O)C(C)(N2C(=O)c3c(F)c(F)c(F)c(F)c3C2=O)C1=O", "note": "(configuration not stated)", "values": [{"measurement": "GI50", "value": 1750, "unit": "nM"}, {"measurement": "TGI", "value": 5680, "unit": "nM"}]}
{"molecule": "CN1CCN(Cc2ccc(NC(=O)c3cncc(C#Cc4cncc5ncccc45)c3)cc2C(F)(F)F)CC1", "values": [{"measurement": "GI50", "value": 8720, "unit": "nM"}, {"measurement": "TGI", "value": 21800, "unit": "nM"}]}
{"molecule": "O=C(Nc1cccc(Oc2nnc(Cl)c3ccccc23)c1)Nc1ccc(Cl)c(C(F)(F)F)c1", "values": [{"measurement": "GI50", "value": 689, "unit": "nM"}, {"measurement": "TGI", "value": 3430, "unit": "nM"}]}
{"molecule": "COc1cnc2c(c1)C(=O)c1c-2n(CCCN2CCC(O)CC2)c(=O)c2cc(F)ccc12", "values": [{"measurement": "GI50", "value": 152, "unit": "nM"}, {"measurement": "TGI", "value": 438, "unit": "nM"}]}
{"molecule": "C=CC[P+](c1ccccc1)(c1ccccc1)c1ccccc1", "values": [{"measurement": "GI50", "value": 609, "unit": "nM"}, {"measurement": "TGI", "value": 9130, "unit": "nM"}]}
{"molecule": "C[C@@H]1CC[C@@H]2[C@@H]1[C@H](OC(=O)/C=C/c1ccccc1)[C@]1(C3CCCCC3)C[C@@H](NC(=O)CO)[C@@]2(C)O1", "values": [{"measurement": "GI50", "value": 17100, "unit": "nM"}, {"measurement": "TGI", "value": 33500, "unit": "nM"}]}
{"molecule": "Cc1cc(C2=NNC(=O)Cc3cc4c(cc32)OCCO4)cc(C)c1N", "values": [{"measurement": "GI50", "value": 523, "unit": "nM"}, {"measurement": "TGI", "value": 7240, "unit": "nM"}]}
{"molecule": "CC(=O)OCC(=O)O[C@@H]1C[C@]2(C(C)C)O[C@@]1(C)[C@@H]1CC[C@@H](C)[C@H]1[C@@H]2OC(=O)/C=C/c1ccccc1", "values": [{"measurement": "GI50", "value": 13500, "unit": "nM"}, {"measurement": "TGI", "value": 55600, "unit": "nM"}]}
{"molecule": "Cc1noc(C)c1-c1cc(O)cc(C(O)c2ccccc2)c1", "note": "(configuration not stated)", "values": [{"measurement": "GI50", "value": 1890, "unit": "nM"}, {"measurement": "TGI", "value": 40600, "unit": "nM"}]}
{"molecule": "CCCC[N+](CCCC)=c1ccc2nc3c(C)cc(N(CC)CC)cc3sc-2c1", "values": [{"measurement": "GI50", "value": 39.1, "unit": "nM"}, {"measurement": "TGI", "value": 351, "unit": "nM"}]}
{"molecule": "COc1cc2nccc(Oc3ccc(NC(=O)C4(C(=O)Nc5ccc(F)cc5)CC4)cc3)c2cc1Oc1ccc(N)cn1", "values": [{"measurement": "GI50", "value": 2450, "unit": "nM"}, {"measurement": "TGI", "value": 8820, "unit": "nM"}]}
{"molecule": "COc1ccc(-c2nn(-c3cccc(NC(=O)c4ccc5c(c4)OCCO5)c3)cc2-c2ccncc2)cc1Cl", "values": [{"measurement": "GI50", "value": 1630, "unit": "nM"}, {"measurement": "TGI", "value": 6480, "unit": "nM"}]}
{"molecule": "Oc1c(CN2CCCC2)cc(COCc2ccc(Br)cc2)c2cccnc12", "values": [{"measurement": "GI50", "value": 602, "unit": "nM"}, {"measurement": "TGI", "value": 2140, "unit": "nM"}]}
{"molecule": "O=C(Nc1ccc(Cl)cc1F)c1cc(I)ccc1O", "values": [{"measurement": "GI50", "value": 2100, "unit": "nM"}, {"measurement": "TGI", "value": 5450, "unit": "nM"}]}
{"molecule": "CN1CCN(c2ccc3nc(-c4c(N)c5c(F)cccc5[nH]c4=O)[nH]c3c2)CC1", "values": [{"measurement": "GI50", "value": "1460 nM and 953 nM and 2300 nM"}, {"measurement": "TGI", "value": "3580 nM and > 2300 nM and 7030 nM"}]}
{"molecule": "N#Cc1ccc(N2Cc3ccccc3OC3=C2C(=O)c2c(O)ccc(O)c2C3=O)cc1", "values": [{"measurement": "GI50", "value": 132, "unit": "nM"}, {"measurement": "TGI", "value": 366, "unit": "nM"}]}
{"molecule": "O=C(CF)N(O)c1ccc(/C=C/c2ccccc2)cc1", "values": [{"measurement": "GI50", "value": 64.2, "unit": "nM"}, {"measurement": "TGI", "value": 354, "unit": "nM"}]}
{"molecule": "CC/C=C\\C/C=C\\C[C@H](O)C/C=C1/C(=O)C=C[C@@H]1C/C=C\\CCCC(=O)O", "values": [{"measurement": "GI50", "value": 2320, "unit": "nM"}, {"measurement": "TGI", "value": 6710, "unit": "nM"}]}
{"molecule": "CC[C@H](Nc1nc(N)nc(C)c1C#N)c1nc2cccc(NCc3ccc(C(=O)NO)cc3)c2c(=O)n1-c1ccccc1", "values": [{"measurement": "GI50", "value": 1270, "unit": "nM"}, {"measurement": "TGI", "value": 4420, "unit": "nM"}]}
{"molecule": "C#C[C@]1(O)CC[C@H]2[C@@H]3CC=C4c5sc(Nc6cccc(C)n6)nc5CC[C@]4(C)[C@H]3CC[C@@]21C", "values": [{"measurement": "GI50", "value": 2040, "unit": "nM"}, {"measurement": "TGI", "value": 5680, "unit": "nM"}]}
{"molecule": "O=c1c2ccccc2n2n1CC(O)C2", "note": "(configuration not stated)", "values": [{"measurement": "GI50", "value": "> 100000", "unit": "nM"}, {"measurement": "TGI", "value": "> 100000", "unit": "nM"}]}
{"molecule": "O=C(CN1CCN(c2ccc(Cl)cc2)CC1)N1CCN(c2nnc(-c3ccc(Cl)cc3)c(-c3ccc(Cl)cc3)n2)CC1", "values": [{"measurement": "GI50", "value": 18800, "unit": "nM"}, {"measurement": "TGI", "value": 65200, "unit": "nM"}]}
{"molecule": "CC1=C2C(=C[C@@](C)(C=O)[C@@H]2O)C(=O)[C@](C)(O)C12CC2", "values": [{"measurement": "GI50", "value": 233, "unit": "nM"}, {"measurement": "TGI", "value": 764, "unit": "nM"}]}
{"molecule": "COC(=O)[C@]12CC[C@@H](C)[C@H](C)[C@@H]1C1=CC[C@@H]3[C@@]4(C)C(C=O)=C[C@@](C)(COC(=O)c5ccco5)[C@@H]4C(=O)C[C@@]3(C)[C@]1(C)CC2", "values": [{"measurement": "GI50", "value": 277, "unit": "nM"}]}
{"molecule": "Cc1cnc(/C=N\\NC(N)=S)c2cccc(N)c12", "values": [{"measurement": "GI50", "value": 206, "unit": "nM"}, {"measurement": "TGI", "value": 504, "unit": "nM"}]}
{"molecule": "CC1CCN(CCCCCOc2ccc3oc4cc(Cl)ccc4c(=O)c3c2)CC1", "values": [{"measurement": "GI50", "value": 6130, "unit": "nM"}, {"measurement": "TGI", "value": 13600, "unit": "nM"}]}
{"molecule": "CN(C)c1ccc(/C=C(\\C#N)c2nc3ccccc3n2C)cc1", "values": [{"measurement": "GI50", "value": 1760, "unit": "nM"}, {"measurement": "TGI", "value": "> 100000", "unit": "nM"}]}
